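Five compound concentrations were applied to cells in 96-well plates for 48 hours; endpoints were derived by simple linear interpolation of the resulting dose-response curve. GI50: concentration for 50% inhibition of growth. Definition used: TGI = concentration required for complete inhibition of growth.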 Bounds are passed on as bounds.

Common to all, as to test: NCI tumour cell line growth inhibition, 48 h
Assay [1] relates to A549 NSCLC.
In assay [2] the test system is MCF7 breast.
The subject of assay [3] is NCI-H226 lung.
The test system of assay [4] is OVCAR-4 ovarian.
In assay [5] the test system is OVCAR-5 ovarian.
Assay [6] concerns SF-268 CNS.
Assay [7] concerns SK-OV-3 ovarian.
The subject of assay [8] is SNB-19 CNS.
The test system of assay [9] is MALME-3M melanoma.
Assay [10] has as its system A498 renal.

As for `Cc1nc(C(N)=S)sc1/C(CC(=O)C(=O)Nc1cccc2ccc(O)cc12)=N\NC(=O)c1ccncc1`, the TGI in assay [1], in assay [2], in [3], in assay [4], in assay [5] and in assay [6] was above 100 µM in each case. The TGI in [7] and in assay [8] was above 100 µM each time.

`COc1ccc(CNc2nc(NCc3ccc(OC)c(OC)c3)nc(NC3CCCCC3)n2)cc1`: the TGI in assay [1], in assay [9], in [2], in assay [3], in assay [4] and in [5] was above 100 µM each time. Also, the TGI in [7] and in [8] was above 100 µM in each case.

Regarding `CC(C)C1/C(=N/O)CC(c2ccccc2)N(N=O)C1c1ccccc1` (stereo unspecified), the TGI was above 100 µM in [1]; 61.9 µM in [9]; above 100 µM in assay [2]; above 100 µM in assay [3]; above 100 µM in assay [4]; above 100 µM in assay [6]. Moreover, the TGI in [7] and in [8] was above 100 µM throughout.

As to `COc1ccc2c(=O)c(O)c(-c3ccc(OC)c(OC)c3)oc2c1`, the TGI is above 100 µM in [10]; above 100 µM in assay [1]; above 100 µM in assay [9]; above 100 µM in [2]; 0.599 µM in [4]; above 100 µM in assay [5]. Also, the TGI in [6], in [7] and in assay [8] was above 100 µM throughout.

On to `NC(=O)C(c1ccccc1)N1OC2C(=O)N(c3ccccc3)C(=O)C2C1c1c2ccccc2c(Cl)c2ccccc12` (stereo unspecified), for which the TGI in [1], in [9], in [2], in assay [3], in assay [4] and in assay [5] was above 100 µM each time. For the same compound, the TGI in assay [6], in assay [7] and in [8] was above 100 µM in each case.

For `C[C@]12CC[C@H](O)CC1=CC[C@@H]1C2CC[C@]2(C)C(=O)N(N)C(=O)CC12` (stereo partly specified), the TGI in assay [10], in assay [1], in assay [9], in assay [3], in [4] and in assay [5] was above 100 µM in each case. In addition, the TGI in assay [6], in assay [7] and in [8] was above 100 µM in each case.

Turning to `Clc1cc(OC2C3CC4CC(C3)CC2C4)nc(Cl)n1` (stereo unspecified), the TGI was 39.6 µM in assay [10]; 95.9 µM in assay [1]; 30.1 µM in assay [9]; 35.2 µM in [2]; 34.3 µM in assay [4]; 44.2 µM in assay [5]. Besides, the TGI in assay [6] is 49.1 µM; in assay [7], above 100 µM; in assay [8] it was above 100 µM.

Consider `Nc1cccc2cc(Cl)cnc12`, for which the TGI in assay [10], in assay [1], in assay [9], in [3], in assay [4] and in assay [5] was above 100 µM in each case. In addition, the TGI in [6], in assay [7] and in [8] was above 100 µM each time.

Turning to `CCCNC1=C2CC(C)CC(OC)[C@@H](O)[C@H](C)/C=C(\C)C(OC(N)=O)C(OC)/C=C\C=C(/C)C(=O)NC(=CC1=O)C2=O` (stereo partly specified), the TGI in assay [10] was 9.55 µM; in assay [1], 27.9 µM; in assay [2], 28.5 µM; in [3], 5.21 µM; in assay [4], above 100 µM; in [6] it was 27.1 µM. In addition, the TGI in assay [7] and in [8] was above 100 µM in each case. Besides, the GI50 in assay [1] was 0.514 µM; in assay [2] it was 0.0525 µM; in [3], 0.244 µM; in assay [5], 13.3 µM; in [6] it was 0.134 µM; in [7], 0.0747 µM.

With `CCOC(=O)c1c2ccccc2n2c(N)c(C(N)=O)nnc12`, the TGI was 71 µM in assay [10]; above 100 µM in assay [1]; above 100 µM in assay [9]; above 100 µM in assay [2]; above 100 µM in assay [4]; above 100 µM in assay [5]. Besides, the figures for the TGI in [6], in [7] and in assay [8] were 56.3 µM, 37.6 µM and 91.8 µM, respectively.

Turning to `CNS(=O)(=O)NNS(=O)(=O)c1ccc2ccccc2c1`, the TGI in [10], in assay [1], in [9], in assay [3], in assay [4] and in assay [5] was above 100 µM each time. Also, the TGI in assay [6], in assay [7] and in assay [8] was above 100 µM throughout.

In the case of `COc1cc2c(cc1OC)C(c1ccccc1CCCCl)=NCC2`, the TGI in assay [10], in assay [1], in [2], in assay [3], in assay [4] and in assay [5] was above 100 µM in each case. The TGI in assay [6], in [7] and in assay [8] was above 100 µM throughout.

With `CCC12C=CCN3CCC4(C(=C(C(=O)OC)[C@@H]1O)Nc1ccccc14)C32` (stereo partly specified), the TGI was determined as 5.28 µM in [10]; 5.15 µM in assay [1]; 3.43 µM in [9]; 2.71 µM in assay [3]; 4.17 µM in [4]; 4.67 µM in assay [5]. Also, the TGI in assay [6] was 6.76 µM; in assay [7], 6.2 µM; in assay [8] it was 3.8 µM.

`O=C(O)c1cccc2c1/C(=N/Nc1ccccc1)CC2`: the TGI in assay [10] is above 100 µM; in assay [2] it was above 100 µM; in assay [3], 98.9 µM; in [4], above 100 µM; in [5], above 100 µM; in assay [6] it was above 100 µM. For the same compound, the TGI in [7] was above 100 µM.

These data come from PubChem BioAssay (NCI).
